Measurements reported in patent US20180201592A1, “2-AMINO-1,3,4-THIADIAZINE AND 2-AMINO-1,3,4-OXADIAZINE BASED ANTIFUNGAL AGENTS” (F2G Limited, priority 2015, published 2018).

Key:
Settings in all cases: banded MIC grade
Aspergillus fumigatus = experiment: Minimum inhibitory concentration, YAG medium; type: cell-based
In short: (§1)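 Broth microdilution in YAG medium (1% glucose, 1% ammonium chloride, 0.5% yeast extract) with spore inocula of 1-2×10^4 cfu/mL and doubling dilutions typically spanning 50-0.05 mg/L. Plates were incubated 24 hrs at 35° C and read by OD 485 nm. MIC is the lowest concentration giving >70% growth inhibition versus drug-free control, in mg/L.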

A. fumigatus 210 [1] = experiment: Minimum inhibitory concentration, YAG medium; type: cell-based, Aspergillus fumigatus
In short: as §1

A. terreus 49 [2] = experiment: Minimum inhibitory concentration, YAG medium; type: cell-based, Aspergillus terreus
In short: (§2)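 Compound from a 5 mg/mL DMSO stock was further diluted in sterile water, then serially doubled in water and plated with Aspergillus spp. spores. After 24 hrs at 35° C, growth was monitored by optical density at 485 nm; MICs are given in mg/L.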

Aspergillus flavus = experiment: Minimum inhibitory concentration, YAG medium; type: cell-based
In short: as §2

Aspergillus niger = experiment: Minimum inhibitory concentration, YAG medium; type: cell-based
In short: as §2

Aspergillus terreus = experiment: Minimum inhibitory concentration, YAG medium; type: cell-based
In short: as §2

A. flavus = experiment: Minimum inhibitory concentration, RPMI medium; type: cell-based
In short: (§3)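 Compound stock was made at 5 mg/mL in DMSO, diluted in sterile water and serially doubled in water, then tested in RPMI 1640 medium. Plates were incubated 24-48 hrs at 35° C, and growth was scored as optical density at 485 nm.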

A. niger = experiment: Minimum inhibitory concentration, RPMI medium; type: cell-based
In short: as §3

A. terreus 49 [3] = experiment: Minimum inhibitory concentration, RPMI medium; type: cell-based
In short: as §3

A. terreus = experiment: Minimum inhibitory concentration, RPMI medium; type: cell-based
In short: as §3

C. albicans = experiment: Minimum inhibitory concentration, RPMI medium; type: cell-based
In short: as §3

C. glabrata = experiment: Minimum inhibitory concentration, RPMI medium; type: cell-based
In short: as §3

C. krusei = experiment: Minimum inhibitory concentration, RPMI medium; type: cell-based
In short: as §3

C. parapsilosis = experiment: Minimum inhibitory concentration, RPMI medium; type: cell-based
In short: as §3

C. tropicalis = experiment: Minimum inhibitory concentration, RPMI medium; type: cell-based
In short: as §3

A. fumigatus 210 [4] = experiment: Minimum inhibitory concentration, RPMI medium; type: cell-based
In short: (§4)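 Compound doubling dilutions were prepared from 5 mg/mL DMSO stock; fungus was diluted in RPMI 1640 with 2% glucose and 0.135 M MOPS (pH 7.0), giving inocula of 1-2×10^4 cfu/mL and drug range 50-0.05 mg/L. Plates ran 24-48 hrs at 35° C; MIC is the lowest concentration giving >80% growth inhibition by OD485 versus drug-free control.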

A. fumigatus = experiment: Minimum inhibitory concentration, RPMI medium; type: cell-based
In short: as §4

Row | SMILES | MIC grade, A. FUMIGATUS, YAG media (Aspergillus fumigatus) | MIC grade, A. FUMIGATUS 210, YAG media (A. fumigatus 210 [1]) | MIC grade, A. TERREUS 49, YAG media (A. terreus 49 [2]) | MIC grade, A. FLAVUS, YAG media (Aspergillus flavus) | MIC grade, A. NIGER, YAG media (Aspergillus niger) | MIC grade, A. TERREUS, YAG media (Aspergillus terreus) | MIC grade, A. FLAVUS, RPMI media (A. flavus) | MIC grade, A. NIGER, RPMI media (A. niger) | MIC grade, A. TERREUS 49, RPMI media (A. terreus 49 [3]) | MIC grade, A. TERREUS, RPMI media (A. terreus) | MIC grade, C. ALBICANS, RPMI media (C. albicans) | MIC grade, C. GLABRATA, RPMI media (C. glabrata) | MIC grade, C. KRUSEI, RPMI media (C. krusei) | MIC grade, C. PARAPSILOSIS, RPMI media (C. parapsilosis) | MIC grade, C. TROPICALIS, RPMI media (C. tropicalis) | MIC grade, A. FUMIGATUS 210, RPMI media (A. fumigatus 210 [4]) | MIC grade, A. FUMIGATUS, RPMI media (A. fumigatus)
1 | NC1=NN=C(CCCCOCc2ccc(F)cc2F)CS1 | 4 (4: <0.2 mg/L) | 4 (4: <0.2 mg/L) | 4 (4: <0.2 mg/L) | 4 (4: <0.2 mg/L) | 4 (4: <0.2 mg/L) | 4 (4: <0.2 mg/L) | 4 (4: <1 mg/L) | 4 (4: <1 mg/L) | 4 (4: <1 mg/L) | 4 (4: <1 mg/L) | 4 (4: <1 mg/L) | 4 (4: <1 mg/L) | 4 (4: <1 mg/L) | 4 (4: <1 mg/L) | 4 (4: <1 mg/L) | 3 (3: 1-5 mg/L) | 4 (4: <1 mg/L)
2 | Cc1cc(COCCCCC2=NN=C(N)SC2)ccc1F | 4 (4: <0.2 mg/L) | 4 (4: <0.2 mg/L) | 4 (4: <0.2 mg/L) | 4 (4: <0.2 mg/L) | 4 (4: <0.2 mg/L) | 4 (4: <0.2 mg/L) | 4 (4: <1 mg/L) | 3 (3: 1-5 mg/L) | 3 (3: 1-5 mg/L) | 3 (3: 1-5 mg/L) | 4 (4: <1 mg/L) | 3 (3: 1-5 mg/L) | 4 (4: <1 mg/L) | 4 (4: <1 mg/L) | 4 (4: <1 mg/L) | 2 (2: 5-20 mg/L) | 4 (4: <1 mg/L)
3 | NC1=NN=C(CCCCOCCc2ccccc2)CS1 | 3 (3: 0.2-1 mg/L) | 3 (3: 0.2-1 mg/L) | 3 (3: 0.2-1 mg/L) | 4 (4: <0.2 mg/L) | 3 (3: 0.2-1 mg/L) | 3 (3: 0.2-1 mg/L) | 3 (3: 1-5 mg/L) | 2 (2: 5-20 mg/L) | 2 (2: 5-20 mg/L) | 2 (2: 5-20 mg/L) | 3 (3: 1-5 mg/L) | 2 (2: 5-20 mg/L) | 3 (3: 1-5 mg/L) | 3 (3: 1-5 mg/L) | 3 (3: 1-5 mg/L) | 1 (1: ≥20 mg/L) | 2 (2: 5-20 mg/L)
4 | NC1=NN=C(CCCCOCc2ccc(Cl)cc2Cl)CS1 | 2 (2: 1-5 mg/L) | 2 (2: 1-5 mg/L) | 2 (2: 1-5 mg/L) | 2 (2: 1-5 mg/L) | 3 (3: 0.2-1 mg/L) | 2 (2: 1-5 mg/L) | 2 (2: 5-20 mg/L) | 1 (1: ≥20 mg/L) | 2 (2: 5-20 mg/L) | 2 (2: 5-20 mg/L) | 2 (2: 5-20 mg/L) | 1 (1: ≥20 mg/L) | 2 (2: 5-20 mg/L) | 2 (2: 5-20 mg/L) | 2 (2: 5-20 mg/L) | 1 (1: ≥20 mg/L) | 1 (1: ≥20 mg/L)
5 | NC1=NN=C(CCCCOCc2cccc(C(F)(F)F)c2)CS1 | 3 (3: 0.2-1 mg/L) | 3 (3: 0.2-1 mg/L) | 2 (2: 1-5 mg/L) | 3 (3: 0.2-1 mg/L) | 3 (3: 0.2-1 mg/L) | 2 (2: 1-5 mg/L) | 2 (2: 5-20 mg/L) | 2 (2: 5-20 mg/L) | 2 (2: 5-20 mg/L) | 2 (2: 5-20 mg/L) | 3 (3: 1-5 mg/L) | 1 (1: ≥20 mg/L) | 2 (2: 5-20 mg/L) | 2 (2: 5-20 mg/L) | 2 (2: 5-20 mg/L) | 1 (1: ≥20 mg/L) | 2 (2: 5-20 mg/L)
